Results taken from paper PMC11204923, “Marine Cytotoxin Santacruzamate A Derivatives as Potent HDAC1-3 Inhibitors and Their Synergistic Anti-Leukemia Effects with Venetoclax” (Marine Drugs, 2024).
Where “and” joins values, the source holds several entries; their conditions need not be identical. Equal values may be shown once.

What was measured:
HDAC1 = molecular target: T1, HDAC1 (Homo sapiens, UniProt Q13547); assay: In vitro HDAC inhibition fluorescence assay, HDAC1; type: biochemical
T1 construct: purchased BPS Bioscience
T1 sequence (Q13547 whole entry): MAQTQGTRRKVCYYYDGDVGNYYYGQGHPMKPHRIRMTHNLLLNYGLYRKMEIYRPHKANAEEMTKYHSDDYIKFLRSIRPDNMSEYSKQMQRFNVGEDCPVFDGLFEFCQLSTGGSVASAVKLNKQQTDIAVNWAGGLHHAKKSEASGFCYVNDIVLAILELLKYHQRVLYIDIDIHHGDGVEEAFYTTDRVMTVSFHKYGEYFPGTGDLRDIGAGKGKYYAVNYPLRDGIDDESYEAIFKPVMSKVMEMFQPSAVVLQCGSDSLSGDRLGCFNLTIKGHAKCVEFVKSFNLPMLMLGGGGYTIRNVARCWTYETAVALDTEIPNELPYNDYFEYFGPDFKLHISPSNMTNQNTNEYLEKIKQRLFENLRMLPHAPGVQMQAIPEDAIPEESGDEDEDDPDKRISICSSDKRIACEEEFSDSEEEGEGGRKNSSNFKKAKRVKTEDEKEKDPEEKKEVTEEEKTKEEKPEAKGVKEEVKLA
Description: (§1) All of the HDAC enzymes were purchased from BPS Bioscience. In vitro HDAC inhibition assays were conducted as previously described. In brief, 20 μL of recombinant HDAC enzyme solution (HDAC1-9, 11) was mixed with various concentrations of the tested compound (20 μL). […] After incubation at 37 °C for 2 h, the catalysis was stopped by the addition of 10 μL of developer containing 30 mg/mL trypsin and 6 μM trichostatin A (TSA). Then, 30 min later, the fluorescence intensity was measured using a microplate reader at excitation and emission wavelengths of 360 and 460 nm, respectively. The inhibition ratios were calculated from the fluorescence intensity readings of tested wells relative to those of control wells, and the IC50 curves and values were determined by GraphPad Prism 6.0, using the “log(inhibitor) vs. normalized response-variable slope” function.

HDAC2 = molecular target: T2, HDAC2 (Homo sapiens, UniProt Q92769); assay: In vitro HDAC inhibition fluorescence assay, HDAC2; type: biochemical
T2 construct: purchased BPS Bioscience
T2 sequence (Q92769 whole entry): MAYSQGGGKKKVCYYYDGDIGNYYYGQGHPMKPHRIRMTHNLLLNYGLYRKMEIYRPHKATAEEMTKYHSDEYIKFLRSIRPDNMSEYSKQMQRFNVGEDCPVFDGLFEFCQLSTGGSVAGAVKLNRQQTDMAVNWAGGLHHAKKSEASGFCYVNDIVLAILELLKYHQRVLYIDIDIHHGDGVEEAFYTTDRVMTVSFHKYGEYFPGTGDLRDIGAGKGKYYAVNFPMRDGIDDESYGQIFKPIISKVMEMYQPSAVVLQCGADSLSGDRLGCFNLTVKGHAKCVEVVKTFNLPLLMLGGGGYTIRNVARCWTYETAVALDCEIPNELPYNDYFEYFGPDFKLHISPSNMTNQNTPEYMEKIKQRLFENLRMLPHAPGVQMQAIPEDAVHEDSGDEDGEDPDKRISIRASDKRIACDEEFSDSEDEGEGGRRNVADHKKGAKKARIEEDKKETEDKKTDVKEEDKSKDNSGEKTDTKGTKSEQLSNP
Description: as §1

HDAC5 = molecular target: T3, HDAC5 (Homo sapiens, UniProt Q9UQL6); assay: In vitro HDAC inhibition fluorescence assay, HDAC5; type: biochemical
T3 construct: purchased BPS Bioscience
T3 sequence (Q9UQL6 whole entry): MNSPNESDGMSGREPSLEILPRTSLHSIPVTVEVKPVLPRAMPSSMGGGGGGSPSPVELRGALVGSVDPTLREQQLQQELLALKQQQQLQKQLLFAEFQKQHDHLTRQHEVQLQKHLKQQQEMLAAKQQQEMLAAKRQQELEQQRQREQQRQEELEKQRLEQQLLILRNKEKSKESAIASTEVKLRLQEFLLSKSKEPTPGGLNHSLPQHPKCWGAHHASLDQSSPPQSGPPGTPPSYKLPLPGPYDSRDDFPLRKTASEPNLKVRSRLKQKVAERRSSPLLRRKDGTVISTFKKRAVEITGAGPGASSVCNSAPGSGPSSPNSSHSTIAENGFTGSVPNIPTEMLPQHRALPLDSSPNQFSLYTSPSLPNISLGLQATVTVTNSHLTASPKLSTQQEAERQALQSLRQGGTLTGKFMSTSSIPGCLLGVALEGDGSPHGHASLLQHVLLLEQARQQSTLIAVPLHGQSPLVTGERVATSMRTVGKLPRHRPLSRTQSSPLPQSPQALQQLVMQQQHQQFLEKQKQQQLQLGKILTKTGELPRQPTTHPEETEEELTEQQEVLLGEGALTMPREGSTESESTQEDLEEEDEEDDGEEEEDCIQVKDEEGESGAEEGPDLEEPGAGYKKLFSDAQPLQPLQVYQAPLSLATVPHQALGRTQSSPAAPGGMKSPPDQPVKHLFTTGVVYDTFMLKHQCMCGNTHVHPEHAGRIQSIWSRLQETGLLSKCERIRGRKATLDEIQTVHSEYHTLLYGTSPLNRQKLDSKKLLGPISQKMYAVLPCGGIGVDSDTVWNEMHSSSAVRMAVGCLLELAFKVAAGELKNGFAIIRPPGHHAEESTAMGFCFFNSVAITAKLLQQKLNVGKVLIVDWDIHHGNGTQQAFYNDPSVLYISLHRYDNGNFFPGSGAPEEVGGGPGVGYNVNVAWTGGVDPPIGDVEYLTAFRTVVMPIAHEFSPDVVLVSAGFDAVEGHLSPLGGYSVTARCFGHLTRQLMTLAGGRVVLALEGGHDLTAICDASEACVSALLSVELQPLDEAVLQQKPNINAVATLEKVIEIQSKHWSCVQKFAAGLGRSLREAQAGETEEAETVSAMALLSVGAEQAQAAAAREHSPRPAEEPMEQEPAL
Description: (§2) All of the HDAC enzymes were purchased from BPS Bioscience. In vitro HDAC inhibition assays were conducted as previously described. In brief, 20 μL of recombinant HDAC enzyme solution (HDAC1-9, 11) was mixed with various concentrations of the tested compound (20 μL). The mixture was incubated at 37 °C for 1 h, and then, 10 μL of fluorogenic substrate (Boc-Lys (acetyl)-AMC for HDAC1, 2, 3 and 6; Boc-Lys (trifluoroacetyl)AMC for HDAC4, 5, 7, 8, 9 and 11) was added to achieve a final concentration of 50 μM. After incubation at 37 °C for 2 h, the catalysis was stopped by the addition of 10 μL of developer containing 30 mg/mL trypsin and 6 μM trichostatin A (TSA). Then, 30 min later, the fluorescence intensity was measured using a microplate reader at excitation and emission wavelengths of 360 and 460 nm, respectively. The inhibition ratios were calculated from the fluorescence intensity readings of tested wells relative to those of control wells, and the IC50 curves and values were determined by GraphPad Prism 6.0, using the “log(inhibitor) vs. normalized response-variable slope” function.

HDAC6 = molecular target: T4, HDAC6 (Homo sapiens, UniProt Q9UBN7); assay: In vitro HDAC inhibition fluorescence assay, HDAC6; type: biochemical
T4 construct: purchased BPS Bioscience
T4 sequence (Q9UBN7 1-1215): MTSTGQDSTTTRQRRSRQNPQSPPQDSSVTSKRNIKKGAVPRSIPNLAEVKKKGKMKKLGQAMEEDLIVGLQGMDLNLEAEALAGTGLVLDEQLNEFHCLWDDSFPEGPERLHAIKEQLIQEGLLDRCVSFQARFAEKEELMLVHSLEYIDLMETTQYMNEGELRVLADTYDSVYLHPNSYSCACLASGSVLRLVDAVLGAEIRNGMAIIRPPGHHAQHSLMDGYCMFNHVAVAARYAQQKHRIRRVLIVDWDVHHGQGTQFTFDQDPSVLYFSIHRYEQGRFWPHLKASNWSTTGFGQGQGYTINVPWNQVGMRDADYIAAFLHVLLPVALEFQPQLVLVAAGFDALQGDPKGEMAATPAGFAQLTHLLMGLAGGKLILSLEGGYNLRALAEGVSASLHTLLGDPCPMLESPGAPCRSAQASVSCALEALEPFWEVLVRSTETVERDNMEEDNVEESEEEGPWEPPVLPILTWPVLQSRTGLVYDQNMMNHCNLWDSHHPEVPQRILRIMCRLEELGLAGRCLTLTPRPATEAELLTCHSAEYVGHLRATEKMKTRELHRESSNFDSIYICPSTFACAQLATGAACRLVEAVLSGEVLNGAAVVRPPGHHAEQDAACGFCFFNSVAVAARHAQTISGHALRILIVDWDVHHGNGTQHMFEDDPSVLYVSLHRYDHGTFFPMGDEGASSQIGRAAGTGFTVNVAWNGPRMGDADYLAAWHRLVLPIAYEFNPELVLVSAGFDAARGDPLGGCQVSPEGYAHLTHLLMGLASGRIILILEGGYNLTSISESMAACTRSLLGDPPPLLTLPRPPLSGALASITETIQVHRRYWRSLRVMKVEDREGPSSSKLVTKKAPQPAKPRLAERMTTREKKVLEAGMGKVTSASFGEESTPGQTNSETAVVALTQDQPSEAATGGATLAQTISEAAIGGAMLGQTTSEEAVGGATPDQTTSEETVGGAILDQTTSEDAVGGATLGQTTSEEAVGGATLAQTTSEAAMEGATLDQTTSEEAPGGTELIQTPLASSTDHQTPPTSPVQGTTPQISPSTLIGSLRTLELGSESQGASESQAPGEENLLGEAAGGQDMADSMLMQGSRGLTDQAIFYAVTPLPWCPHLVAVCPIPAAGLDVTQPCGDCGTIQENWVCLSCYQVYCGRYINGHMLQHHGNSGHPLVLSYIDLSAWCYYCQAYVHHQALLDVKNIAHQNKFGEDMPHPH
Description: as §2

MV4-11 cells = assay: Microdilution checkerboard assay, 25c combined with Venetoclax; type: cell-based; conditions: Homo sapiens, 72 h, read-out: Inhibition Rate (%)
Description: The inhibition effect of 25c combined with Venetoclax on the proliferation of MV4-11 cells was determined by microdilution checkerboard assay. CompuSyn software was used to calculate the combined action index of the two compounds, and the cell inhibition rates of the two compounds acting alone and the combined action were input to calculate the combination index (CI) to evaluate the synergistic effect of the drugs. A CI value less than 1 indicates a synergistic effect, a CI value equal to 1 indicates an additive effect and a CI value greater than 1 indicates an antagonistic effect.

CCCNNC(=O)C=Cc1ccc(CNCCc2ccccc2)cc1 [Compound 25c, 3-(4-((Phenethylamino)methyl)phenyl)-N′-propylacrylohydrazide]
IC50 (HDAC1): 28.1 nM and 28 nM
Inhibition Rate of HDAC1 (%) (HDAC1; 10 nM, 0.01 µM): 31.1 ± 2.1%
inhibition at 0.01 µM (HDAC1; 10 nM, read-out: Inhibition Rate of HDAC1 (%)): 31.1 ± 2.09%
inhibition at 0.1 µM (HDAC1; 100 nM, read-out: Inhibition Rate of HDAC1 (%)): 83.6 ± 0.4%
IC50 (HDAC2): 135 ± 13.3 nM
IC50 (HDAC5): > 10000 nM
IC50 (HDAC6): > 10000 nM
inhibition at 0.13 µM (MV4-11 cells; 25c 0.13 μM alone): 15.8%
inhibition at 0.19 µM (MV4-11 cells; 25c 0.19 μM alone): 33.9%
inhibition at 0.28 µM (MV4-11 cells; 25c 0.28 μM alone): 69.8%
